The source of these data is the NIST ThermoML archive (doi:10.1021/je7004787).

Numbers after ± are expanded uncertainties.

The nature of the data set: wn = mass fraction of the nth substance listed. Particulars: 298.15 K, 101 kPa, Liquid; for viscosity: Capillary tube (Ostwald / Ubbelohde) method; for mass density: Pycnometric method.

For `C1COCCO1` [1,4-dioxane] + C1CCOC1, the viscosity reads like this: (w1 = 0.1) 0.49 ± 0.014 mPa·s; (w1 = 0.2) 0.51 ± 0.014 mPa·s; (w1 = 0.3) 0.53 ± 0.015 mPa·s; (w1 = 1) 1.2 ± 0.031 mPa·s. Besides, the mass density by setting is: (w1 = 0.1) 894.1 ± 4.5 kg/m3; (w1 = 0.2) 907.1 ± 4.6 kg/m3; (w1 = 0.3) 919 ± 4.8 kg/m3; (w1 = 1) 1030.5 ± 6 kg/m3.

On to `C1CCOC1` [tetrahydrofuran] + C1COCCO1, for which, where the note is “w2 = 0”, the viscosity amounted to 0.463 ± 0.013 mPa·s and the mass density came to 880.7 ± 4.4 kg/m3.
